# Measured values taken from patent publication US6217863A, “Rationally designed polysaccharide lyases derived from heparinase I” (Massachusetts Institute of Technology, priority 1999, dated 2001).
# Like-named read-outs stand apart in the source and are kept apart here.
# Target: T1, heparinase I (heparin lyase I) of Flavobacterium heparinum, native purified (chromatofocused) enzyme, SEQ ID NO: 2 (Pedobacter heparinus, UniProt Q05819)
# T1 construct: mature heparinase I from F. heparinum contains two free cysteines and not a disulfide bridge; made in house; host or cells: Flavobacterium heparinum (native enzyme purified from cell extract: hydroxyapatite, QAE-Sephadex, chromatofocusing)
# Experiment: Inactivation of heparinase I activity by sulfhydryl-specific reagents
# Format: biochemical
# Conditions: for time to complete inactivation: PBS; for inactivation rate: 500 mM iodoacetic acid; for inactivation rate constant / inactivation time constant τ: PCMB; for inactivation time constant τ: pseudo first order fit
# Protocol: Purification of heparinase I: Lyophilized powdered extracts of F. heparinum were prepared according to the method of Yang et al. (1985). Partially purified heparinase I was prepare by step gradient elution of powdered cell extracts from a hydroxyapatite column followed by reverse adsorption on a QAE-Sephadex column Further purification of the enzyme was accomplished with a chromatofocusing, 1 cm×18 cm column with PBE resin (Pharmacia). A 1.5-2.5 ml aliquot of protein (0.5-1.5 mg) in 0.01 M phosphate (pH 6.8) was applied to the column equilibrated with 0.025 M ethanolamine (pH 9.4 with acetic acid). Elution was carried out with 150 ml of 10% Polybuffer 96 (pH 6.0 with acetic acid). […] Fractions (1.5-2.0 ml) were collected in tubes containing 0.2 ml of 0.5 M phosphate buffer at pH 6.8. Immediately after collection, the fractions were assayed for heparinase I activity. […] The active fractions were pooled, and NaCl was added from a 2.0 M aqueous solution to give a final concentration of 0.1 M. Heparinase I was concentrated and equilibrated with a buffer consisting of 0.01 M NaH2 PO4 and 0.1 M NaCl at pH 6.8 (PBS) with Centricon P-30 microconcentrators (Amicon, Mass.).
# Modification with Organomercurials: The reversible, sulfhydryl specific anion, PCMB, was utilized to determine the effects of sulfhydryl modification on heparinase I activity. […] The time course of inactivation in the presence and absence of heparin also was determined.
# At =Ao exp(-t/.tau.)+A.infin.
# where At is the fractional activity at time t, Ao is the initial factional activity, A.infin. is the residual activity at infinite time, and .tau. is the inactivation time constant in minutes or the reciprocal rate constant. Time constants were obtained by a nonlinear least squares fit of the data to the equation.
# The effect of NEM modification on heparinase I activity was examined in an attempt to elucidate structural influences on the cysteine reactivities.
# In order to ascertain whether significant levels of NEM bind heparinase I, labeling studies with [^3 H]NEM were undertaken.
# T1 sequence (Q05819 22-384): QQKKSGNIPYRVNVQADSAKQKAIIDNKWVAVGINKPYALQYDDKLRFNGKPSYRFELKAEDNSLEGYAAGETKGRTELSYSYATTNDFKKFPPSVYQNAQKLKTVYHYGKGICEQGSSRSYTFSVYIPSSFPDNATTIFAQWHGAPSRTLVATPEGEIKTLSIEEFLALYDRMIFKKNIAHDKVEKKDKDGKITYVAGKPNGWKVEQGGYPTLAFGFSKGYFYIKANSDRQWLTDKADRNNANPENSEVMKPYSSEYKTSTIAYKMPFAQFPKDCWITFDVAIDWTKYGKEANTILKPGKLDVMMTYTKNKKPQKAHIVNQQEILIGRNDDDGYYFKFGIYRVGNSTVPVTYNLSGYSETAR
smiles,measurement,setting,value
NC(=O)CI [iodoacetamide],inhibition at 120000 µM,"120 mM iodoacetamide, 24 h incubation, PBS pH 7.0, 4° C.",15%
same,change in activity,"2, 5, 10 and 120 mM iodoacetamide in PBS, pH 7.0, 4° C., up to 24 h",little change in activity
O=C(O)CI [iodoacetic acid],time to complete inactivation,"0.1 mM iodoacetic acid, 4° C.",≤ 15 h
same,time to complete inactivation,"1 mM iodoacetic acid, 4° C.",≤ 0.25 h
same,inactivation rate,no heparin,3±1×10^-3 h^-1
same,inactivation rate,presence of 2 mg/ml heparin,5±2×10^-4 h^-1
same,inhibition at 2000 µM,"10 min, 2 mM iodoacetic acid in PBS, 4° C., within 10 min, read-out: heparinase I inactivated",95 ± 5%
same,retention of activity relative to untreated heparinase I,iodoacetic acid treated enzyme (heparin protection experiment),15±5%
"CCN1C(=O)C=CC1=O [NEM, N-ethylmaleimide]",inhibition at 1000 µM,"1 mM NEM overnight at 4° C., read-out: activity loss",~15%
same,change in activity,"1 mM NEM, pH 7.0, over an 8 h period",little change in activity
same,inhibition at 1000 µM,"1 mM [3H]NEM, non-denatured enzyme, 20 h, read-out: loss of activity",15%
same,inhibition at 10000 µM,"0.75 h, 10 mM NEM, pH 7.0, 4° C., within 45 min, read-out: enzymatic activity lost",15%
O=C(O)c1cc[c]([Hg][Cl])cc1 [PCMB],reversible loss of enzyme activity,"PCMB at 2.5-100 μM, 4° C.",95±5%
same,inactivation rate constant,0.0 mg/ml heparin,1.2 min⁻¹
same,inactivation rate constant,0.5 mg/ml heparin,0.2 min⁻¹
same,inactivation time constant τ,absence of heparin,0.8 ± 1 min
same,inactivation time constant τ,presence of 0.5 mg/ml heparin,5 ± 1 min
